Data: ChEMBL document CHEMBL1158321, “In vitro anti-HIV activity of biflavonoids isolated from Rhus succedanea and Garcinia multiflora” (J Nat Prod, 1997)

Tests used:
[1] = molecular target: Human immunodeficiency virus type 1 reverse transcriptase (Human immunodeficiency virus 1) (UniProt Q72547); experiment: Inhibition of HIV1 recombinant reverse transcriptase p66/p51 expressed in Escherichia coli at 200 ug/mL
[2] = molecular target: Human immunodeficiency virus type 1 reverse transcriptase (Human immunodeficiency virus 1, UniProt Q72547); experiment: (§1) Inhibition of HIV1 recombinant reverse transcriptase p66/p51 expressed in Escherichia coli
[3] = Selectivity index, ratio of IC50 for human PBMC to EC50 for HIV1 LAV-1
PBMC = experiment: Cytotoxicity against uninfected PHA-stimulated human PBMC assessed as thymidine incorporation after 24 hrs […]; type: cell-based
[4] = test system: Human immunodeficiency virus 1; experiment: Antiviral activity against HIV1 LAV-1 in PHA-stimulated human PBMC after 6 days; type: functional, organism-based; conditions: Human immunodeficiency virus 1, LAV-1, 144 h
[5] = molecular target: Human immunodeficiency virus type 1 reverse transcriptase (Human immunodeficiency virus 1) (UniProt Q72547); experiment: as §1; design: concentration or dose not given beside the values; conditions: concentration not given here

Row | Compound | inhibition [1] [%] | IC50 [2] [µM] | Selectivity Index [3] | IC50 (PBMC) [µM] | EC50 [4] [µM] | inhibition [5] [%]
1 | O=C1C[C@@H](c2ccc(O)c(O)c2)Oc2c1c(O)cc(O)c2[C@H]1C(=O)c2c(O)cc(O)cc2O[C@@H]1c1ccc(O)cc1 | 96 | 170 |  |  |  | 
2 | O=C1C[C@@H](c2ccc(O)cc2)Oc2c1c(O)cc(O)c2[C@H]1C(=O)c2c(O)cc(O)cc2O[C@@H]1c1ccc(O)cc1 | 86 | 236 | 2.3 | 88 | 38 | 
3 | COc1ccc(-c2cc(=O)c3c(OC)cc(OC)c([C@@H]4C(=O)c5c(OC)cc(OC)cc5O[C@H]4c4ccc(OC)cc4)c3o2)cc1 | 0 |  |  |  |  | < 30
4 | COc1ccc([C@@H]2CC(=O)c3c(OC)cc(OC)c([C@H]4C(=O)c5c(OC)cc(OC)cc5O[C@@H]4c4ccc(OC)cc4)c3O2)cc1 | 0 |  |  |  |  | 
5 | COc1ccc([C@@H]2Oc3cc(OC)cc(OC)c3C(=O)[C@H]2c2c(OC)cc(OC)c3c(=O)cc(-c4ccc(OC)c(OC)c4)oc23)cc1 | 0 |  |  |  |  | < 30
6 | Cc1ccc([C@@H]2CC(=O)c3c(cc(O)c(-c4c(O)cc(O)c5c4O[C@H](c4ccc(O)cc4)CC5=O)c3O)O2)cc1 | 14.1 |  |  |  |  | < 30
7 | O=C1C[C@@H](c2ccc(O)cc2)Oc2c1c(O)cc(O[C@@H]1O[C@H](CO)[C@@H](O)[C@H](O)[C@H]1O)c2[C@H]1C(=O)c2c(O)cc(O)cc2O[C@@H]1c1ccc(O)cc1 | 1.5 |  |  |  |  | 
8 | O=C1C[C@@H](c2ccc(O)cc2)Oc2cc(O)c(-c3c(O)cc4c(c3O)C(=O)C[C@@H](c3ccc(O)cc3)O4)c(O)c21 | 22.1 |  |  |  |  | < 30
9 | O=C1C[C@@H](c2ccc(O)cc2)Oc2cc(O)cc(O)c21 | 34.9 |  |  |  |  | 30
10 | O=C1c2c(O)cc(O)cc2O[C@@H](c2ccc(O)cc2)[C@@H]1c1c(O)cc(O)c2c(=O)cc(-c3ccc(O)cc3)oc12 | 45.3 |  |  |  |  | 30
11 | O=c1cc(-c2ccc(O)c(-c3c(O)cc(O)c4c(=O)cc(-c5ccc(O)cc5)oc34)c2)oc2cc(O)cc(O)c12 [AMENTOFLAVONE] | 97.3 | 119 | <1 | 35 | 94 | 
12 | O=c1cc(-c2ccc(O)cc2)oc2cc(O)cc(O)c12 [APIGENIN] | 72 | 443 |  |  |  | 
13 | O=c1cc(-c2ccc(Oc3c(O)cc4oc(-c5ccc(O)cc5)cc(=O)c4c3O)cc2)oc2cc(O)cc(O)c12 [HINOKIFLAVONE] | 89.9 | 62 | 2.2 | 9 | 4.1 | 
14 | O=C1c2c(O)cc(O)cc2O[C@H](c2ccc(O)cc2)[C@H]1c1c(O)cc(O)c2c(=O)cc(-c3ccc(O)c(O)c3)oc12 [MORELLOFLAVONE] | 99.2 | 116 | 12 | 82 | 6.9 | 
15 | O=c1cc(-c2ccc(O)c(-c3c(O)cc4oc(-c5ccc(O)cc5)cc(=O)c4c3O)c2)oc2cc(O)cc(O)c12 [ROBUSTAFLAVONE] | 91.4 | 65 | <1 | 77 | > 100 | 
16 | Cc1cn([C@H]2C[C@H](N=[N+]=[N-])[C@@H](CO)O2)c(=O)[nH]c1=O [ZIDOVUDINE] |  |  | >10 | > 100 |  | 
